Assay results as given in US9486440B2, “Uses of indole-ketones or indolidones as neuro-protective drugs” (UNIVERSITY OF MACAU, priority 2011, dated 2016).
“Also recorded” adds a separate entry of the source.

Key:
CGNs [1] = experiment: MPP+-induced neurotoxicity in CGNs, MTT and LDH assays; format: cell-based, rat; conditions: pre-treatment 2 hours, then 35 μM MPP+ for 24 hours
Method: (§1) All animal experiments were conducted according to the ethical guidelines of ICMS, Macau University and the Animal Care Facility, The Hong Kong Polytechnic University. Rat CGNs were prepared from 8-day-old Sprague-Dawley rats (The Animal Care Facility, The Hong Kong Polytechnic University) as described by Li et al., 2005. Briefly, neurons were seeded at a density of 2.7×10^5 cells/ml in basal modified Eagle's medium (Invitrogen) containing 10% fetal bovine serum, 25 mM KCl, 2 mM glutamine, and penicillin (100 units/ml)/streptomycin (100 μg/ml). Cytosine arabinoside (10 μM) was added to the culture medium 24 hour after plating to limit the growth of non-neuronal cells. With the use of this protocol, more than 95% of the cultured cells were granule neurons.
(§2) The percentage of surviving neurons in the presence of SU4312 and/or MPP^+ was estimated by determining the activity of mitochondrial dehydrogenases with 3(4,5-dimethylthiazol-2-yl)-2.5-diphenyltetrazolium bromide (MTT) assay (Li et al., 2007). The assay was performed according to the specifications of the manufacturer (MTT kit I; Roche Applied Science). Briefly, the neurons were cultured in 96-well plates, 10 μl of 5 mg/ml MTT labeling reagent was added to each well containing cells in 100 μl of medium, and the plates were incubated for 4 hours in a humidified incubator at 37° C. After the incubation, 100 μl of the solvating solution (0.01 N HCl in 10% SDS solution) was added to each well for 16-20 hours. Absorbance of the samples was measured at a wavelength of 570 nm with 655 nm as a reference wavelength. Unless otherwise indicated, the extent of MTT conversion in cells exposed to MPP^+ is expressed as a percentage of the control.
Cytotoxicity was determined by measuring the release of lactate dehydrogenase (LDH). Briefly, cells were precipitated by centrifugation at 500 g for 5 min at room temperature, 50 μl of the supernatants was transferred into new wells, and LDH was determined using the in vitro toxicology assay kit (Roche). The absorbance of the samples was measured at a wavelength of 490 nm with 655 nm as a reference wavelength.
as §1, with “Rat” for “All animal experiments were conducted according to the ethical guidelines of ICMS, Macau University and the Animal Care Facility, The Hong Kong Polytechnic University. Rat”, “hours” for “hour”
as §2, with “The” for “The percentage of surviving neurons in the presence of SU4312 and/or MPP^+ was estimated by determining the activity of mitochondrial dehydrogenases with 3(4,5-dimethylthiazol-2-yl)-2.5-diphenyltetrazolium bromide (MTT) assay (Li et al., 2007). The”, “incubated at 37° C.” for “incubated”, “incubator.” for “incubator at 37° C.”, “The absorbance” for “Absorbance”

zebrafish larvae = experiment: Locomotion behavioral test of zebrafish larvae; format: in vivo; conditions: for MPTP-induced deficit of swimming behavior (total distance travelled): 200 μM MPTP 2 days, then 10 μM MPTP plus drug 3 days, L-deprenyl 20 μM, L-dopa 150 μM
Method: (§3) Wild-type zebrafish (AB strain) and Tg (fli-1:EGFP) transgenic zebrafish were maintained as described in the Zebrafish Handbook (Westerfield, 1993). Zebrafish embryos were generated by natural pair-wise mating (3-12 months old) and raised at 28.5° C. in embryo medium (13.7 mM NaCl, 540 μM KCl, pH 7.4, 25 μM Na2HPO4, 44 μM KH2PO4, 300 μM CaCl2, 100 μM MgSO4, 420 μM NaHCO3, pH 7.4). […] An equal concentration of DMSO in embryo medium was used as vehicle control in each experiment.
Thus the MPTP exposure needs to last 5 day from 1 dpf. […] Thus subsequent locomotion behavioral studies were done with 200 μM MPTP for treatment for 2 days at 1 dpf then replacing insult with 10 μM MPTP for incubation for another 3 days.
(§4) After drug treatment, zebrafish larvae at 6 dpf were transferred into 96-well plates (1 fish/well and 12 larvae/group). Fishes responded with excessive stress reaction (such as rapid and disorganized swimming or immobility for 2 min) due to the handling and monitoring of the behavior were discarded. The experiments were performed in a calm enclosed area. The larvae were allowed to habituate to the new environment for 30 min prior to experiments. Behavior was monitored by an automated video tracking system (Viewpoint, ZebraLab, LifeSciences). The 96-well plates and camera were housed inside a Zebrabox and the swimming pattern of each fish was recorded for 10 min and repeated 3 times, once every other 10 min. The total distance moved was defined as the distance (in cm) that the fish had moved during one session (10 min).
Normally as late as 3 dpf, zebrafish larvae show very little spontaneous swimming, but by 5 dpf they spontaneously swim longer distances and independently search for food. The MPTP exposure therefore needs to last 5 days from 1 dpf. […] Thus subsequent locomotion behavioral studies were performed with 200 μM MPTP for 2-day treatment at 1 dpf then replacing with media containing 10 μM MPTP for another 3-day incubation.
as §4, with “The larvae were discarded due to” for “Fishes responded with”, “reaction to the handling and monitoring of behavior” for “reaction”, “min).” for “min) due to the handling and monitoring of the behavior were discarded.”, “sealed” for “enclosed”, “min. Swimming behavior” for “min prior to experiments. Behavior”, “for” for “repeated”

CGNs [2] = experiment: Low potassium-induced cell death in CGNs, MTT assay; format: cell-based; conditions: 5 mM KCl BME medium, 24 hours; sunitinib 0.1-2 μM
Method: Cell viability was measured by MTT assay at 24 hours after low potassium challenge. […] After 24 hours of low potassium challenge, CGNs were assayed with an FDA/PI double staining. […] After 24 hours of low potassium challenge, CGNs were assayed with Hoechst staining. The number of apoptotic nuclei with condensed chromatin were counted from representative Hoechst staining photomicrographs and represented as a percentage of the total number of nuclei counted. […] Intracellular NO level was measured using DAF-FM diacetate as a probe at 4 hour after low potassium challenge. Data, expressed as percentage of control (CGNs were cultured in high potassium medium), were the mean±SEM of three separate experiments; *p<0.05 and **p<0.01 versus low potassium group in (A) and (D) or versus control in (C); ^##p<0.01 versus low potassium group in (C) (Turkey's test).
It was previously reported that low potassium could induce typical apoptosis in cerebellar granule neurons (CGNs) (Fu et al., 2008). […] Cell viability was measured with an MTT assay 24 hours after the low potassium treatment.

VEGFR-2 = conditions: cited from earlier work
nNOS = nNOS (Homo sapiens, UniProt P29475); conditions: cited from earlier work
iNOS = iNOS (Homo sapiens, UniProt P35228); conditions: cited from earlier work
[3] = tested on: DA neurons in the zebrafish brain; experiment: MPTP zebrafish, whole-mount immunostaining against tyrosine hydroxylase; format: in vivo; conditions: 200 μM MPTP, 2 days from 1 dpf; SU4312 3-30 μM, PTK787/ZK222584 0.3-3 μM, SU5416 0.1-1 μM, VRI 0.03-0.3 μM
Method: as §3

[4] = tested on: intersegmental-vessel (ISV) formation; experiment: Intersegmental-vessel formation in Tg(fli-1:EGFP) zebrafish; format: in vivo; conditions: 1 dpf embryos treated 48 hours; SU4312 3-30 μM, PTK787/ZK222584 0.3-3 μM, VRI 0.1-0.3 μM, SU5416 0.3-1 μM
Method: as §3
(§5) After drug treatment, zebrafish were removed from microplate and observed for gross morphological changes of blood vessel under a fluorescence microscope (Olympus am Motorized Inverted Microscope, Japan) equipped with a digital camera (DP controller, Soft Imaging System, Olympus). Images were analyzed with Axiovision 4.2 and Adobe Photoshop 7.0.
(§6) Wild-type zebrafish (AB strain) and Tg(fli-1:EGFP) transgenic zebrafish were maintained as described in the Zebrafish Handbook (Westerfield, 1993). Zebrafish embryos were generated by natural pair-wise mating (3-12 months old) and were raised at 28.5° C. in embryo medium (13.7 mM NaCl, 540 μM KCl, pH 7.4, 25 μM Na2HPO4, 44 μM KH2PO4, 300 μM CaCl2, 100 μM MgSO4, 420 μM NaHCO3, pH 7.4). […] Equal concentration of DMSO in embryo medium was used as vehicle control in each experiment.
as §5, with “from the” for “from”

zebrafish = experiment: Toxicity to zebrafish; format: in vivo; conditions: SU5416 10 μM, VRI 3 μM, SU4312 up to 30 μM
Method: as §3, §6

Row | Structure (SMILES) | MPP+-induced cell death (cell viability, MTT and LDH assays) (CGNs [1]) | MPTP-induced deficit of swimming behavior (total distance travelled) (zebrafish larvae) | IC50 (VEGFR-2) [nM] | other results
1 | CC(=N)NCc1cccc(CN)c1 [1400W] | failed to block neuronal death; also recorded: did not show protection |  |  | 
2 | N[C@@H](Cc1ccc(O)c(O)c1)C(=O)O [levodopa] |  | rescued |  | 
3 | C#CCN(C)[C@H](C)Cc1ccccc1 [L-deprenyl] |  | rescued |  | 
4 | CNC(=N)NCCC[C@H](N)C(=O)O [L-NMMA] |  |  |  | low potassium-induced cell death (MTT) (CGNs [2]): at 10-20 μM prevented low potassium-induced neuronal death in CGNs
5 | CN(C)c1ccc(/C=C2\C(=O)Nc3ccccc32)cc1 [cis-SU4312] |  |  | 800 | 
6 | CCSC(=N)N [EPTU, 2-ethyl-2-thiopseudourea] | prevented MPP^+-induced neuronal death in CGNs |  |  | IC50 (nNOS): 36 nM; IC50 (iNOS): 17 nM
7 | O=C1Nc2ccc(Br)cc2/C1=C/c1cc2c([nH]1)CCCC2 [VRI] | at 1 and 3 μM failed to block neuronal loss in vitro | but not VRI ameliorated the MPTP-induced deficit of swimming behavior | 70000 | MPTP-induced loss of DA neurons / decrease of TH+ region area [3]: could not prevent MPTP-induced decrease in TH^+ region area; swimming behavior of normal zebrafish larvae, drug alone (zebrafish larvae; zebrafish, in vivo): Neither SU5416 nor VRI treatment alone notably altered the swimming behavior; inhibition of intersegmental-vessel (ISV) formation [4]: inhibited the formation of intersegmental-vessels; toxicity to zebrafish (zebrafish): showed toxicity to zebrafish
8 | CN(C)c1ccc(/C=C2/C(=O)Nc3ccccc32)cc1 [trans-SU4312] |  |  | 5200 | 
